Data: patent US20070031511A1, “Method of treatment” (priority 2003, published 2007)
Entries after “also recorded” stand apart in the source; their conditions may differ.

Assays:
IMGE-5 cells [1] = experiment: IMGE-5 cell proliferation, MTT assay; format: cell-based, mice; settings: DFO 1 μM
IMGE-5 cells [2] = experiment: Wound healing / cell migration assay; format: cell-based, mice
Procedure: The IMGE-5 cell line was established from the gastric mucosa of mice transgenic for a temperature-sensitive mutant of the SV40 large T antigen (Hollande et al, 2001). IMGE-5 cells were generally grown at 33° C. in DMEM containing 1 unit/ml γ-interferon, 10% FBS, 100 U/ml penicillin, and 100 μg/ml streptomycin (permissive conditions). For all experiments, cells were transferred to 39° C. in the same medium without […] (non-permissive conditions), where they display differentiated characteristics such as expression of functional adherens and tight junctions. All experiments have been performed on cells between passages 20 and 35.
In order to assess the effects of different stimuli on cell migration, wound healing experiments were performed as detailed elsewhere (Hollande et al, 1997). In brief, IMGE-5 cells were grown in 12-well plates in DMEM at 33° C. until they reached 80% confluence, then shifted to 39° C. and starved of serum for 24 h. The confluent monolayer was wounded using a 20 μl-pipette tip, and cells were then washed 3 times with phosphate-buffered saline (PBS: 2.7 mM KCl, 1.5 MM KH2PO4, 142 mM NaCl, and 10 mM Na2HPO4, pH 6.95) and treated with or without different compounds in DMEM with antibiotics. Morphology and migration of cells were observed and photographed immediately, and after treatment for 17 and 24 h. Wound width was measured at six different positions on the 24 h photographs, and averages calculated.

rectal mucosa = experiment: Proliferation in the rectal mucosa of rectally defunctioned rats (metaphase-arrested cells); format: in vivo; settings: DFO 400 mg/kg intraperitoneally thrice weekly, 4 weeks; Ggly 2.5 nmol/kg/hr
Procedure: DFO (400 mg/kg) was administered intraperitoneally thrice weekly, and bismuth ions were administered as colloidal bismuth subcitrate (135 mg/kg/12 hours) by oral gavage 5 days per week. After 4 weeks, the rats were injected with vincristine to arrest cycling cells in metaphase, and sacrificed 3 hrs later. Crypt heights in the rectal mucosa, and the number of metaphase arrested cells per crypt, were then determined microscopically.

hepatoma cell lines = settings: Kicic et al, 2001; cited from earlier work
human hepatomas = settings: Hann et al, 1992; cited from earlier work
CCK-2 receptor = target: T1, CCK-2 receptor (Homo sapiens, UniProt P32239); experiment: Gamide-stimulated inositol phosphate production in COS-7 cells transfected with the CCK-2 receptor; format: cell-based; parameters: COS-7 cells transiently transfected with CCK-2 receptor cDNA; expressed in transfected cells; host or cells: COS-7; settings: 1 μM DFO, 10 nM Gamide
T1 sequence (P32239 1-447): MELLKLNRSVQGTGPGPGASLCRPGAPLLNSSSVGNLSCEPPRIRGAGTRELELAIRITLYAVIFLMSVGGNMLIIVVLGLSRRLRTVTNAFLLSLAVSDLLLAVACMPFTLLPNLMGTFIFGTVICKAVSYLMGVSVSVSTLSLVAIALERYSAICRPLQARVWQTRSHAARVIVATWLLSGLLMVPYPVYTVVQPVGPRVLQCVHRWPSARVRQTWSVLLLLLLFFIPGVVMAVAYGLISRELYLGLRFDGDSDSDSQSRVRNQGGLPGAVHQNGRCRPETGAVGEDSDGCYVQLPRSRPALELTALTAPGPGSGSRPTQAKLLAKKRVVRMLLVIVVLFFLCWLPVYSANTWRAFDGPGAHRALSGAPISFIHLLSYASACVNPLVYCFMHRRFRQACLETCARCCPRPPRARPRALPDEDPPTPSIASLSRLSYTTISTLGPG
Procedure: Intracellular inositol phosphate production was determined as described previously (Qian et al, 1993). IMGE-5 cells (10^5 cells/ml) were plated in 24-multiwell culture plates in DMEM supplemented with 10% FBS, 200 IU/ml penicillin and 200 μg/ml streptomycin. 24 h later, cells were incubated with DMEM supplemented with antibiotics and Myo-[2-^3H]inositol (2.5 μCi/well) and shifted to 39° C. for 16 h. Cells were then washed with pre-warmed DMEM and incubated (20-30 minutes, 37° C.) with DMEM supplemented with 20 mM LiCl. Loaded cells were then washed in 1 ml of IP buffer (135 mM NaCl, 20 mM N-(2-hydroxyethyl)piperazine-N′-(2-ethanesulfonic acid), 2 mM CaCl2, 1.2 mM MgSO4, 1 mM ethylene glycol-bis(2-aminoethylether)-N,N,N′,N′-tetraacetic acid, 10 mM LiCl, and 0.5% bovine serum albumin, pH 7.45) and incubated with or without agonist in a final volume of 0.5 ml of IP buffer. After 1-h incubation at 37° C., the reaction was stopped by removing the incubation medium and adding 1 ml of a mixture of ethanol/HCl (2000:1; v/v). One ml of each aliquot was applied to a column containing 1.6 ml of a 1:2 (v/v) Dowex AG-1-X8 anion exchange resin in distilled water. The columns were washed with 4 ml of distilled water, followed by 4 ml of 40 mM HCOONH4, and inositol phosphates were eluted with 4 ml of 1 M HCOONH4. The radioactivity of each eluate was counted after addition of Complete phase combining system solution (Amersham, UK). For the positive control, IMGE-5 cells were incubated with a combination of 30 mM NaF and 10 μM AlCl3 under the same experimental conditions.
Gamide-stimulated inositol phosphate production was measured in COS-7 cells transfected with the CCK-2 receptor. […] Bismuth ions alone had no effect on inositol phosphate production in CCK-2 receptor-transfected COS-7 cells and HT29 cells, even at the highest concentration tested.
We then investigated the role of the individual glutamates in biological activity. The effects of the mutants GamideE7A and GamideE8,9A on inositol phosphate production in COS-7 cells transiently transfected with the CCK-2 receptor were compared.

IMGE-5 cells [3] = experiment: IMGE-5 cell proliferation, [3H]-thymidine incorporation; format: cell-based, mice
Procedure: In some cases cell proliferation was also measured by [^3H]-thymidine incorporation as described previously (Oiry et al., 2000). Briefly, IMGE-5 cells (10^5/well) were seeded in 24-well plates in medium containing 10% FBS and 1 unit/ml γ-interferon. On the next day cells were serum starved and shifted to 39° C. for 24 hr. Cells were then incubated with or without various compounds at 39° C. for 17 h in medium supplemented with 0.2% bovine serum albumin only. Cells were incubated with 0.5 μCi of [^3H] thymidine in the same medium at 39° C. for 4 h, washed twice with PBS (2.7 mM KCl, 142 mM NaCl, 1.5 mM KH2PO4, 10 mM Na2HPO4, pH 6.95) containing 0.2% bovine serum albumin and incubated at 4° C. for 30 min with 5% trichloroacetic acid. Finally cells were washed with 95% ethanol to remove unincorporated [^3H] thymidine, and lysed with 1 M NaOH. Lysates were transferred to counting vials and neutralized with 1M HCl. The radioactivity of each lysate was counted in a β-counter after the addition of 10 ml of Pico-fluor 40 solution (Packard, Meriden, Conn.).
In some experiments IMGE-5 cells were seeded in a 96-well plate at a density of 3-5×10^3 cells/well in.DMEM containing 10% FBS, and cultured at 33° C.. On the following day, the cells were serum-starved at 33° C. for 24 h. […] The cells were cultured at 39° C. for 24 h, and then harvested using a NUNC cell harvester. The amount of ^3H-thymidine incorporated through DNA synthesis was detected with a β-counter (Packard, Meriden, Conn.). […]

[4] = 1H NMR titration of Ggly fragments with ferric citrate; format: binding; settings: pH 5.3, 278 K, read-out: Apparent Kd for ferric ions from shift of the Glu10 amide resonance
Procedure: The peptides LE5AYG, LE5A, E5AY and E5A (approximately 2 mM) were dissolved in H2O with 5 or 10% ^2H2O. […] Sequence-specific ^1H NMR resonance assignments were made from two-dimensional nuclear Overhauser enhancement spectroscopy (NOESY) and total correlation spectroscopy (TOCSY).
The apparent dissociation constants, Kd, for the complexes between ferric ions and the nonapeptide LE5AYG or the octapeptide LE5AY were obtained from the change in chemical shift of the Glu10 amide proton on addition of ferric citrate using the program Sigmaplot (Jandel Scientific, San Rafael, Calif.), by linear regression of the data to the equation 1/δ=Kd/Δ·1/[Fe^3+]+1/Δ where δ is the change in chemical shift, Δ is the maximum change in chemical shift, and [Fe^3+] is the concentration of added ferric ions. Measurement of Inositol Phosphate Production
In order to define the ligands involved in ferric ion binding, we next investigated the effect of ferric ions on the NMR spectra of the peptides. Ferric ion titration experiments were carried out by addition of 20, 50, or 200 mM ferric citrate solution to the peptides. The pH was maintained at 5.3 by addition of small amounts of NaO^2H or ^2HCl. Concentration, pH, temperature and use of ferrric citrate were in keeping with the conditions that were employed in earlier examples in order to prevent precipitation of peptide or ferric hydroxide. […]

CC(=O)N(O)CCCCCNC(=O)CCC(=O)N(O)CCCCCNC(=O)CCC(=O)N(O)CCCCCN [DFO, desferrioxamine]
Effect on Ggly-stimulated IMGE-5 cell proliferation (IMGE-5 cells [1]; MTT and thymidine assays): completely blocked
Reduction of Gamide-stimulated IMGE-5 cell proliferation (IMGE-5 cells [1]; MTT, 72 h): 60%
Effect on Ggly-stimulated IMGE-5 cell migration (IMGE-5 cells [2]; DFO 1 μM): completely blocked
Effect on stimulation of proliferation of the rectal mucosa by Ggly (rectal mucosa): significantly reduced
Inhibition of proliferation of hepatoma cell lines in vitro (hepatoma cell lines): effective inhibitors
Inhibition of human hepatomas (human hepatomas): effective inhibitor
Effect on Gamide-stimulated inositol phosphate production (CCK-2 receptor): had no effect

LEEEEEAYG [LE5AYG]
Stimulation of cell migration compared with Ggly (IMGE-5 cells [2]; 100 nM peptide, 24 h): more effective than Ggly
Effect of DFO on peptide-stimulated migration (IMGE-5 cells [2]; 100 nM peptide, DFO in the medium): reversed by inclusion of DFO
S (%), maximum % stimulation (IMGE-5 cells [3]; IMGE cells, thymidine uptake, best fit at saturating concentration): 45.8%
Stimulation of proliferation of IMGE cells (IMGE-5 cells [3]; incorporation of [3H]-thymidine): significantly stimulated proliferation
Effect of DFO on proliferation induced by the peptide (IMGE-5 cells [3]; peptide 100 nM, plus or minus 1 μM DFO, [3H]-thymidine incorporation): completely blocked; also recorded: significantly blocked by DFO
Kd [4]: 7 mM
